The source of these data is paper PMC12207910 (European journal of pharmaceutical sciences : official …, 2024).

The test system of assay [1] is A. fumigatus (Af-293). The experiment in a line: microbe, parasite or virus in culture. The assay is classed as cell-based, Aspergillus fumigatus. The note with it: Aspergillus fumigatus.
The test system of assay [2] is A. fumigatus (Af-293). The experiment in a line: Kill kinetics assay. The note with it: MIC and 4×MIC, compared to 3b and 4b. Format: cell-based, Aspergillus fumigatus.
The subject of assay [3] is A. fumigatus (Af-293). The assay can be described thus: microbe, parasite or virus in culture. Format: cell-based. The note with it: Aspergillus fumigatus, read-out: MIC A. fumigatus (Af-293).
Assay [4] relates to C. albicans (ATCC 60193). The assay can be described thus: microbe, parasite or virus in culture. Format: cell-based. The note with it: Candida albicans.
Assay [5] relates to C. albicans (ATCC 60193). The assay can be described thus: microbe, parasite or virus in culture. The note with it: Candida albicans, ATCC60193, read-out: MIC C. albicans (ATCC 60193).
For another assay, the system named is C. krusii (ATCC 6258). The experiment in a line: organism not typed. The note with it: read-out: MIC C. krusii (ATCC 6258).
In a further assay the test system is C. albicans (ATCC 10132). The assay can be described thus: microbe, parasite or virus in culture. The note with it: Candida albicans, ATCC10132, read-out: MIC C. albicans (ATCC 10132).
The subject of assay [6] is C. albicans (ATCC 60193). The assay can be described thus: Kill kinetics assay. The assay is classed as cell-based. The note with it: MIC and 4×MIC, compared to 3b and 4b.
For assay [7], the system named is Staphylococcus pneumoniae (ATCC 49619). The assay can be described thus: microbe, parasite or virus in culture. The note with it: ATCC49619, read-out: MIC Staphylococcus pneumoniae (ATCC 49619).
For assay [8], the system named is Enterococcus faecium (ATCC 27270). The experiment in a line: microbe, parasite or virus in culture. The note with it: ATCC27270, read-out: MIC Enterococcus faecium (ATCC 27270).

≈ marks a conversion by molar mass, not a printed value. Read-outs that look alike come from different tables or passages of the source.

Turning to `C[C@@H]1[C@H](O)[C@@H](C)/C=C/C=C/C=C/C=C/C=C/C=C/C=C/[C@H](O[C@@H]2O[C@H](C)[C@@H](O)[C@H](N)[C@@H]2O)C[C@@H]2O[C@](O)(C[C@@H](O)C[C@@H](O)[C@H](O)CC[C@@H](O)C[C@@H](O)CC(=O)O[C@H]1C)C[C@H](O)[C@H]2C(=O)O` [Amphotericin B, reference compound], the MIC in the assay with A. fumigatus (Af-293) [1] (read-out: MIC CaCl2) is 0.7 µg/mL (≈ 0.758 µM); with A. fumigatus (Af-293) [1] (read-out: MIC Control), 0.7 µg/mL (≈ 0.758 µM); in the assay on A. fumigatus (Af-293) [1] (read-out: MIC FBS (25%)), 0.7 µg/mL (≈ 0.758 µM); in the assay with A. fumigatus (Af-293) [1] (read-out: MIC KCl), 0.7 µg/mL (≈ 0.758 µM); with A. fumigatus (Af-293) [1] (read-out: MIC MgCl2) it was 1.5 µg/mL (≈ 1.62 µM); in the assay on A. fumigatus (Af-293) [1] (read-out: MIC NH4Cl), 0.7 µg/mL (≈ 0.758 µM). Also, the MIC with A. fumigatus (Af-293) [1] (read-out: MIC NaCl) and in the assay with A. fumigatus (Af-293) [3] was 0.7 µg/mL (≈ 0.758 µM) throughout. In the assay on A. fumigatus (Af-293) [2], the “fungicidal effect in kill kinetics” value is reported as “mild fungicidal effect”.

As to `OC(Cn1cncn1)(Cn1cncn1)c1ccc(F)cc1F` [Fluconazole], the MIC with C. albicans (ATCC 60193) [4] (ATCC60193, read-out: MIC CaCl2) is 1.5 µg/mL (≈ 4.9 µM); in the assay on C. albicans (ATCC 60193) [4] (ATCC60193, read-out: MIC Control) it was 1.5 µg/mL (≈ 4.9 µM); in the assay with C. albicans (ATCC 60193) [4] (ATCC60193, read-out: MIC FBS (25%)) it was 1.5 µg/mL (≈ 4.9 µM); in the assay on C. albicans (ATCC 60193) [4] (ATCC60193, read-out: MIC KCl), 1.5 µg/mL (≈ 4.9 µM); in the assay with C. albicans (ATCC 60193) [4] (ATCC60193, read-out: MIC MgCl2), 1.5 µg/mL (≈ 4.9 µM); in the assay with C. albicans (ATCC 60193) [4] (ATCC60193, read-out: MIC NH4Cl), 1.5 µg/mL (≈ 4.9 µM). For the same molecule, the MIC in the assay on C. albicans (ATCC 60193) [4] (ATCC60193, read-out: MIC NaCl) is 1.5 µg/mL (≈ 4.9 µM); with C. albicans (ATCC 60193) [5] it was 1.5 µg/mL (≈ 4.9 µM); in the assay with C. krusii (ATCC 6258), 0.7 µg/mL (≈ 2.29 µM); with C. albicans (ATCC 10132) it was 0.7 µg/mL (≈ 2.29 µM). The “fungicidal effect in kill kinetics” value with C. albicans (ATCC 60193) [6] is “mild fungicidal effect”.

Take `CN[C@H](CC(C)C)C(=O)N[C@H]1C(=O)N[C@@H](CC(N)=O)C(=O)N[C@H]2C(=O)N[C@H]3C(=O)N[C@H](C(=O)N[C@H](C(=O)O)c4cc(O)cc(O)c4-c4cc3ccc4O)[C@H](O)c3ccc(c(Cl)c3)Oc3cc2cc(c3O[C@@H]2O[C@H](CO)[C@@H](O)[C@H](O)[C@H]2O[C@H]2C[C@](C)(N)[C@H](O)[C@H](C)O2)Oc2ccc(cc2Cl)[C@H]1O` [Vancomycin]: the MIC was determined as 3.1 µg/mL (≈ 2.14 µM) in [7] and 1.5 µg/mL (≈ 1.04 µM) in assay [8].
